Measurements reported in patent US11026972B2, “Methods for generating macrophages with enhanced cancer phagocytosis” (Georgia State University Research Foundation, Inc., priority 2016, dated 2021).

B1: IL-1β: recombinant murine cytokine, PeproTech (protein, UniProt P10749 118-269, looked up)
Interleukin-1 beta: VPIRQLHYRLRDEQQKSLVLSDPYELKALHLNGQNINQQVIFSMSFVQGEPSNDKIPVALGLKGKNLYLSCVMKDGTPTLQLESVDPKQYPKKKMEKRFVFNKIEVKSKVEFESAEFPNWYISTSQAEHKPVFLGNNSGQDIIDFTMESVSS
B2: IFNγ: recombinant murine cytokine, PeproTech (protein, UniProt P01580 23-155, looked up)
Interferon gamma: HGTVIESLESLNNYFNSSGIDVEEKSLFLDIWRNWQKDGDMKILQSQIISFYLRLFEVLKDNQAISNNISVIESHLITTFFSNSKAKKDAFMSIAKFEVNNPQVQRQAFNELIRVVHQLLPESSLRKRKRSRC

Columns and labels:
[1] = test system: PEMs; assay: Cell signaling inhibitors on LPS/cytokine- or PMA-induced PEM phagocytic activation toward RBCs; type: cell-based, mouse; conditions: for LPS and cytokine-induced phagocytic activation: PEMs treated with LPS and cytokines in the presence of inhibitors
Protocol: FIGS. 5A-5H include data related to our experiments on the role of Syk in phagocytic activation. […] PEMs were treated with LPS and cytokines in the presence of various inhibitors. After washing, inhibitor-free macrophages were tested for phagocytosis toward RBCs. […] PEMs treated with LPS and activating cytokines, or together with IL-10, were tested for total Syk and phosphorylated Syk (Syk^pY, specific at Y519/520). FIG. 5D describes PMA-induced macrophages phagocytosis toward RBCs. WT and SIRPα^−/− PEMs were treated with PMA (37° C., 30 min) before testing phagocytosis toward RBCs. FIG. 5E is a schematic depiction of PKC-Syk-mediated macrophage phagocytic activation toward self. […] Left: Inhibition of Syk by piceatannol and R406 prevented PMA-induced phagocytic activation. […] Error bars are ±SEM. ***P<0.001 vs. the respective controls. […] LPS-treated WT PEMs were further briefly treated with pervanadate before testing for phagocytosis toward RBCs. Error bars are ±SEM. ***P<0.001 vs. the respective controls. […] Data presented in each panel represent at least three independent experiments with n≥4, if applicable.
Ex vivo macrophage phagocytosis: Mouse spleens were harvested and minced in cold HBSS followed by passing through nylon meshes. The spleen cells in suspensions were collected by centrifugation followed by washing. After lysis of RBC, splenocytes were plated in cell culture dishes in DMEM with 10% FBS and cultured for 2 h followed by removal of non-adherent cells. The adherent cells, ˜70% being macrophages as determined by anti-F4/80 staining, were tested for phagocytosis. For phagocytosis of RBC or other tissue cells, targeted cells were labeled with CFSE prior to addition into the macrophage-containing wells. Macrophages and target cells, at a ratio of 1:5-10 for RBC or 1:1-2 for other cells, were co-incubated for 30 min at 37° C. followed by gently washing. Macrophage phagocytosis of target cells was then analyzed by fluorescence microscopy and/or by FACS. […] Alternatively, the freshly isolated splenocytes in suspension were incubated with CFSE-labeled RBC and other phagocytic targets for 30 min at 37° C. Macrophage phagocytosis was then determined by FACS after labeling macrophages with anti-F4/80. To test phagocytosis of apoptotic cells, B16 cells were irradiated by UV for 150 seconds at 50 J/m^2 strength. Apoptosis was analyzed at 2, 4, 6, 8 and 18 h post UV irradiation by labeling of the cells with anti-phosphatidylserine (PS) antibody (data not shown) or FITC-conjugated annexin V (data not shown). Cells that were confirmed to be apoptotic were trypsinized, labeled with CFSE, and then co-incubated with macrophages for 30 min at 37° C. After gentle washing, phagocytosis was analyzed by fluorescence microscopy and/or FACS. To test phagocytosis of bacteria and the fungal product zymosan, AlexaFluor-conjugated E.coli strain […] (2 μl suspension, ˜2 μg) or zymosan bioparticles (1 μl suspension, ˜2 μg) (both from Invitrogen) were incubated with macrophages for 30 min followed by washing and analyses. Similar procedures were performed to test phagocytosis of macrophages from various sources. To obtain peritoneal macrophages, peritonea of mice were lavaged by sterile PBS followed by centrifugation to collect cells. Cells suspended in DMEM with 10% FBS were then plated in cell culture dishes and incubated for 2 h at 37° C. followed by removal of non-adherent cells. To produce bone marrow-derived macrophages, freshly isolated bone marrow cells were culture in macrophage colony-stimulating factor (MCSF, ˜10 ng/ml)-containing MEM with 10% FBS for five-six days and macrophage differentiation was confirmed by anti-F4/80 staining.

[2] = test system: splenic macrophages, PEMs and BMDMs; assay: Ex vivo macrophage phagocytosis toward RBCs and other self-cells after activation; type: cell-based, mouse; conditions: for ability to induce macrophage phagocytosis toward self: PEM, lack of the CD47-SIRPα-mediated inhibition
Protocol: FIGS. 3A-3H include data related to our experiments assaying macrophage phagocytosis ex vivo. FIGS. 3A and 3B show macrophage phagocytosis of RBCs. Freshly isolated splenic macrophages (MØ) and peritoneal macrophages (PEM) and in vitro-derived BMDM (bone marrow-derived macrophages) were tested for phagocytosis toward CFSE-labeled Cd47^+ or Cd47^− RBCs. […] FIGS. 3F and 3G illustrate LPS and IL-17-activated PEM phagocytosis toward splenocytes (FIG. 3F), B16, and EL4 (FIG. 3G). Error bars are ±SEM. **P<0.01, ***P<0.001 vs. no treatment controls. […] PEM lavaged without (ctl.) or with Brewer thioglycollate (3%, i.p.) elicitation was tested. Error bars are ±SEM. ***P<0.001 vs. control PEM. Data presented in each panel represent at least three independent experiments with n≥4, if applicable.
FIGS. 4A-4E include data related to our experiments on macrophage phagocytic plasticity. FIG. 4A is a panel of illustrative line graphs showing that IL-10 inhibits macrophage phagocytosis toward “self.” PEMs were treated with LPS and activating cytokines along with various concentrations of IL-10 before testing their ability to phagocytose RBCs. FIG. 4B illustrates the phagocytic plasticity of WT red pulp macrophages. […] Treatments of cultured macrophages with LPS and IL-17 re-elicited their phagocytosis toward RBCs. […] Error bars are ±SEM. ***P<0.001 vs. freshly isolated splenic macrophages. FIG. 4D includes microscopic images of RBC phagocytosis by LPS- and IL-17-treated splenic macrophages. […] WT PEMs treated with LPS or IL-17 were further treated with Cd47^+ RBCs or Cd47-AP (10 min, 37° C.) followed by cell lysis, SIRPα immunoprecipitation, and WB detection of SIRPα phosphorylation (SIRPα^pY) and SHP-1 association. Data presented in each panel represent at least three independent experiments with n≥4, if applicable.
Ex vivo macrophage phagocytosis: Mouse spleens were harvested and minced in cold HBSS followed by passing through nylon meshes. The spleen cells in suspensions were collected by centrifugation followed by washing. After lysis of RBC, splenocytes were plated in cell culture dishes in DMEM with 10% FBS and cultured for 2 h followed by removal of non-adherent cells. The adherent cells, ˜70% being macrophages as determined by anti-F4/80 staining, were tested for phagocytosis. For phagocytosis of RBC or other tissue cells, targeted cells were labeled with CFSE prior to addition into the macrophage-containing wells. Macrophages and target cells, at a ratio of 1:5-10 for RBC or 1:1-2 for other cells, were co-incubated for 30 min at 37° C. followed by gently washing. Macrophage phagocytosis of target cells was then analyzed by fluorescence microscopy and/or by FACS. To better recognize macrophages, macrophages in wells were labeled with an anti-F4/80 or an anti-CD11b antibody. Alternatively, the freshly isolated splenocytes in suspension were incubated with CFSE-labeled RBC and other phagocytic targets for 30 min at 37° C. Macrophage phagocytosis was then determined by FACS after labeling macrophages with anti-F4/80. To test phagocytosis of apoptotic cells, B16 cells were irradiated by UV for 150 seconds at 50 J/m^2 strength. Apoptosis was analyzed at 2, 4, 6, 8 and 18 h post UV irradiation by labeling of the cells with anti-phosphatidylserine (PS) antibody (data not shown) or FITC-conjugated annexin V (data not shown). Cells that were confirmed to be apoptotic were trypsinized, labeled with CFSE, and then co-incubated with macrophages for 30 min at 37° C. After gentle washing, phagocytosis was analyzed by fluorescence microscopy and/or FACS. To test phagocytosis of bacteria and the fungal product zymosan, AlexaFluor-conjugated E.coli strain […] (2 μl suspension, ˜2 μg) or zymosan bioparticles (1 μl suspension, ˜2 μg) (both from Invitrogen) were incubated with macrophages for 30 min followed by washing and analyses. Similar procedures were performed to test phagocytosis of macrophages from various sources. […]

Molecule	LPS and cytokine-induced phagocytic activation [1]	other results
O=C(O)CN(CCN(CC(=O)O)CC(=O)O)CC(=O)O [EDTA]		macrophage phagocytic activation ([1]; presence of EDTA): hindered macrophage phagocytic activation
COc1cc2ncnc(Nc3ccc(O)cc3)c2cc1OC [JAK3 inhibitor I]	diminished phagocytic activation induced by certain, but not all stimuli	
Cc1ccc(NCCCc2ccccc2)c(N)c1 [JSH-23]	diminished phagocytic activation induced by certain, but not all stimuli	
C/C(O)=C(\C#N)C(=O)Nc1cc(Br)ccc1Br [LFM-13]	diminished phagocytic activation induced by certain, but not all stimuli	
COc1cccc(-c2cc(=O)c3ccccc3o2)c1N [PD98059]	diminished phagocytic activation induced by certain, but not all stimuli	
Cc1ccc(-c2nn(C(C)(C)C)c3ncnc(N)c23)cc1 [PP1]	diminished phagocytic activation induced by certain, but not all stimuli	
CC(C)(C)n1nc(-c2ccc(Cl)cc2)c2c(N)ncnc21 [PP2]	diminished phagocytic activation induced by certain, but not all stimuli	
COc1cc(Nc2ncc(F)c(Nc3ccc4c(n3)NC(=O)C(C)(C)O4)n2)cc(OC)c1OC [R406]		PEM activation ([1]; 400 nM, all stimuli): nearly completely eliminated PEM activation induced by all stimuli; PMA-induced PEM phagocytosis ([1]; Syk inhibition): eliminated the PMA-induced PEM phagocytosis; LPS-induced activation of PEM phagocytosis toward RBC ([1]; dose dependence): dose-dependently inhibited
C[S+]([O-])c1ccc(-c2nc(-c3ccncc3)c(-c3ccc(F)cc3)[nH]2)cc1 (centres unmarked) [SB203580]	diminished phagocytic activation induced by certain, but not all stimuli	
COc1ccc2c(c1)CC[C@@H]1[C@@H]2CC[C@]2(C)[C@@H](NCCCCCCN3C(=O)C=CC3=O)CC[C@@H]12 [U73122]	diminished phagocytic activation induced by certain, but not all stimuli	
JAK inhibitor I	diminished phagocytic activation induced by certain, but not all stimuli	
pervanadate		Cd47-dependent phagocytic recognition ([2]; LPS-treated WT PEMs briefly treated with pervanadate): eliminates Cd47-dependent phagocytic recognition
tumor necrosis factor-alpha [TNFα]		ability to induce macrophage phagocytosis toward self [2]: have the ability to induce macrophage phagocytosis toward self
B1		ability to induce macrophage phagocytosis toward self [2]: have the ability to induce macrophage phagocytosis toward self
B2		ability to induce macrophage phagocytosis toward self [2]: not
